≈ marks a conversion by molar mass, not a printed value.
Assays:
[1] = Metabolic stability in rat hepatocytes (rHep); conditions: n = 1 or geometric mean of n = 2-3
[2] = biological target: hFAP (M39-A757) (Homo sapiens (Human), UniProt Q12884); assay: hFAP binding assay (surface plasmon resonance); conditions: SPR, 20° C.; for hFAP Binding assay k(off) / hFAP Binding assay k(on): single cycle kinetics; for Kd: n = 1 or geometric mean n = 2-4
[3] = biological target: Prolyl endopeptidase, Prolyl Oligopeptidase (hPREP) (Homo sapiens (Human), UniProt P48147); assay: hPrep inhibition assay; type: biochemical; conditions: hPREP 0.6 nM, Z-Gly-Pro-amino-methylcoumarin 50 μM; read-out: PREP IC50
Sequence of Prolyl endopeptidase, Prolyl Oligopeptidase (hPREP) (P48147 whole entry): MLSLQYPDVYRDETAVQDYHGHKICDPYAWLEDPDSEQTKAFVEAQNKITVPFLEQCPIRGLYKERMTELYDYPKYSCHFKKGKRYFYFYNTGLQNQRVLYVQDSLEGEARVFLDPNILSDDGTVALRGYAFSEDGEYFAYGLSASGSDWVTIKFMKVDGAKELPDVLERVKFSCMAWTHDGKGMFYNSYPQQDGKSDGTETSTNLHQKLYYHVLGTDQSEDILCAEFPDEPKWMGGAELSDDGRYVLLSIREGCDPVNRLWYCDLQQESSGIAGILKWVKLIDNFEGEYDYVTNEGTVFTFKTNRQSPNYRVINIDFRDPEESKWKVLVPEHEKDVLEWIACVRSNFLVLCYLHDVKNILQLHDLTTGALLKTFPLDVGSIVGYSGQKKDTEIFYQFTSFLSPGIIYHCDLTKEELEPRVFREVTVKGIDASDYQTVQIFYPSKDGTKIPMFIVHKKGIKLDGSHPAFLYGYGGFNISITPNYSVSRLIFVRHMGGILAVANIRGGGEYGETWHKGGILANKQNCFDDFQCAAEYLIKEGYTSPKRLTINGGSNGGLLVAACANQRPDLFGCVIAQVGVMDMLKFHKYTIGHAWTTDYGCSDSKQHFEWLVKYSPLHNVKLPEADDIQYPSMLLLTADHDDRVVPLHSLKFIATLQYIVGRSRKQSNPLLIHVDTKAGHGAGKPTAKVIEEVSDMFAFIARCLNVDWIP
Summary of the method: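 Fluorogenic read-out (340 nm excitation, 460 nm emission) after 20 min at rt, using 50 μM final Z-Gly-Pro-aminomethylcoumarin and 0.6 nM final enzyme, following 15 min compound preincubation. Buffer pH 7.5 with glutathione and Triton X-100. IC50 via one-site model on % inhibition vs log concentration.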

[4] = Metabolic stability in human liver microsomes (HLM); conditions: for microsomal CLint: human
Description: Metabolic stability in HLM was measured as described in J Comput Aided Mol Des 2015, 29, 795.

[5] = biological target: human Fibroblast activation protein alpha (hFAP) (Homo sapiens (Human), UniProt Q12884); assay: hFAP inhibition assay (tight binders); type: biochemical; conditions: Ala-Pro-AMC 20 μM, n = 1 or geometric mean n = 2-6; further: hFAP 2.4 pM
Sequence of human Fibroblast activation protein alpha (hFAP) (Q12884 38-760): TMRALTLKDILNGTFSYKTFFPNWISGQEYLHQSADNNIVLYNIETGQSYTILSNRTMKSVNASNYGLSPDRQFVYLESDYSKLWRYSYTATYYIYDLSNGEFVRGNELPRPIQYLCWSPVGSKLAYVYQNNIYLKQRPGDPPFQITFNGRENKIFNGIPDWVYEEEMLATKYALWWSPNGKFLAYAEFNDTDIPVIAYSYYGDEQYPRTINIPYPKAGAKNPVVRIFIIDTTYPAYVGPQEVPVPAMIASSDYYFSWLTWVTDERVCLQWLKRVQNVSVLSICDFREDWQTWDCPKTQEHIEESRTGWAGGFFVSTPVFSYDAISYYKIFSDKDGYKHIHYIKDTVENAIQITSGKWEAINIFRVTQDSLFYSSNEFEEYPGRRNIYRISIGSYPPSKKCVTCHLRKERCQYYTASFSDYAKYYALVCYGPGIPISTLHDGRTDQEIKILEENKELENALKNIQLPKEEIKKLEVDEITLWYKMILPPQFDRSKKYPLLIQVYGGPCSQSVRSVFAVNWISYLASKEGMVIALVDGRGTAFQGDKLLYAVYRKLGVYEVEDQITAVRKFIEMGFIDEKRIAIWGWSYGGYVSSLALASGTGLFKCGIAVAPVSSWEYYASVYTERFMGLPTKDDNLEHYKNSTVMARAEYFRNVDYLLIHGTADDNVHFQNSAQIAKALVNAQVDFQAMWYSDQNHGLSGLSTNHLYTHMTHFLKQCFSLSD
Description: The plates were read on a PHERAstar® reader with excitation 340 nm and emission 460 nm. Data were analyzed in Genedata Screener®. IC50 values were determined by plotting % inhibition versus log compound concentration and using a one site dose response model.

[6] = Kinetic solubility; conditions: kinetic from dmso stock
Description: Kinetic solubility was measured as described in Comput Aided Mol Des 2015, 29, 795.

[7] = HLM CLint, n = 1 or average of n = 2-3
[8] = Solubility, kinetic solubility, n = 1 or average of n = 2-3

Sequence of hFAP (M39-A757) (Q12884 39-757): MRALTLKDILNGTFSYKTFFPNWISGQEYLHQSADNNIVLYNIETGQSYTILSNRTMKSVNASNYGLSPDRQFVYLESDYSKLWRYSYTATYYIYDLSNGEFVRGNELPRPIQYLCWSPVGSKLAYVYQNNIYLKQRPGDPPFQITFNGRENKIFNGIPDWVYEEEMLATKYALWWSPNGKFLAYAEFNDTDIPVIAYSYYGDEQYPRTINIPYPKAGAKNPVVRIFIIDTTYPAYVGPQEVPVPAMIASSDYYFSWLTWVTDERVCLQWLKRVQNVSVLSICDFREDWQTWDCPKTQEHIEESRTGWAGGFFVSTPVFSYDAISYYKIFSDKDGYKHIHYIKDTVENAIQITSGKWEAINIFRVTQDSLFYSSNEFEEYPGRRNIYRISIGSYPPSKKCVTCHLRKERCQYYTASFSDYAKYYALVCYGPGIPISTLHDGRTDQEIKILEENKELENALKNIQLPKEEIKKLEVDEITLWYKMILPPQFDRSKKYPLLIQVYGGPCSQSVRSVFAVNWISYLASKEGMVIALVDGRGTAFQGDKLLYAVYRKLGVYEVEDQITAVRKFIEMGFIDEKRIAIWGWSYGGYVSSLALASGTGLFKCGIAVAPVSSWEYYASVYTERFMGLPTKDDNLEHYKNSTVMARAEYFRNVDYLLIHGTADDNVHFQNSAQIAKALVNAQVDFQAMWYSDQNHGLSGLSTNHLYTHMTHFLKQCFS

In the case of N#C[C@@H]1CSCN1C(=O)CNC(=O)c1ccnc2ccc(N3C[C@H]4CCC[C@@H](C3)O4)cc12 [Example 194, 6-((1R,5S)-9-Oxa-3-azabicyclo[3.3.1]nonan-3-yl)-N-(2-((R)-4-cyano-thiazolidin-3-yl)-2-oxoethyl)quinoline-4-carboxamide], the “rHep CLint” value [1] is reported as 44 μL/min/1E6, the “hFAP Binding assay k(off)” value [2] is reported as 0.000068 s⁻¹ and the “hFAP Binding assay k(on)” value [2] is reported as 1100000 M⁻¹ s⁻¹. It also gave a Kd [2] of 0.066 nM, an IC50 [3] of 460 nM and a microsomal CLint [4, 7] of 78 µL/min/mg. It also gave an IC50 [5] of 0.046 nM and a solubility [6, 8] of 480 µM (≈ 217 µg/mL).

For N#C[C@@H]1CSCN1C(=O)CNC(=O)c1ccnc2ccc(N3CCOC[C@@H]3C(F)(F)F)cc12 (single isomer, unassigned) [Example 84, N-(2-((R)-4-Cyanothiazolidin-3-yl)-2-oxoethyl)-6-((R*)-3-(trifluoromethyl)-morpholino)quinoline-4-carboxamide], the “rHep CLint” value [1] was 26 μL/min/1E6, the “hFAP Binding assay k(off)” value [2] was 0.00011 s⁻¹ and the “hFAP Binding assay k(on)” value [2] was 1200000 M⁻¹ s⁻¹. For the same molecule, the Kd [2] was 0.12 nM, the IC50 [3] was 710 nM and the “HLM CLint” value ([4]; n = 1 or average of n = 2-3) was 64 µL/min/mg. It also gave an IC50 [5] of 0.074 nM and a solubility [6, 8] of 940 µM (≈ 451 µg/mL).

In the case of N#C[C@@H]1CSCN1C(=O)CNC(=O)c1ccnc2ccc(-n3cc4c(n3)CCCC4)cc12 [Example 115, (R)—N-(2-(4-Cyanothiazolidin-3-yl)-2-oxoethyl)-6-(4,5,6,7-tetrahydro-2H-indazol-2-yl)quinoline-4-carboxamide], the “rHep CLint” value [1] is reported as 20 μL/min/1E6, the Kd [2] is reported as 0.11 nM and the IC50 [3] is reported as 130 nM. It also gave a microsomal CLint [4, 7] of 120 µL/min/mg, an IC50 [5] of 0.04 nM and a solubility [6, 8] of 0.59 µM (≈ 0.263 µg/mL).

In the case of CC1(CC(F)F)CN(c2ccc3nccc(C(=O)NCC(=O)N4CSC[C@H]4C#N)c3c2)C1 [Example 133, (R)—N-(2-(4-Cyanothiazolidin-3-yl)-2-oxoethyl)-6-(3-(2,2-difluoroethyl)-3-methylazetidin-1-yl)quinoline-4-carboxamide], the “rHep CLint” value [1] is reported as 8.8 μL/min/1E6, the “hFAP Binding assay k(off)” value [2] is reported as 0.000073 s⁻¹ and the “hFAP Binding assay k(on)” value [2] is reported as 1200000 M⁻¹ s⁻¹. The Kd [2] was 0.066 nM, the IC50 [3] was 370 nM and the microsomal CLint [4, 7] was 40 µL/min/mg. It also gave an IC50 [5] of 0.1 nM and a solubility [6, 8] of less than 380 µM.

For CCC1(OC)CCN(c2ccc3nccc(C(=O)NCC(=O)N4CSC[C@H]4C#N)c3c2)CC1 [Example 191, (R)—N-(2-(4-Cyanothiazolidin-3-yl)-2-oxoethyl)-6-(4-ethyl-4-methoxy-piperidin-1-yl)quinoline-4-carboxamide], the “rHep CLint” value [1] was 5.3 μL/min/1E6, the “hFAP Binding assay k(off)” value [2] was 0.000033 s⁻¹ and the “hFAP Binding assay k(on)” value [2] was 1500000 M⁻¹ s⁻¹. It also gave a Kd [2] of 0.022 nM, an IC50 [3] of 550 nM and a microsomal CLint [4, 7] of 94 µL/min/mg. It also gave an IC50 [5] of 0.038 nM and a solubility [6, 8] of 400 µM (≈ 187 µg/mL).

With N#C[C@@H]1CSCN1C(=O)CNC(=O)c1ccnc2ccc(N3CC4(CC4)C3)cc12 [Example 164, (R)—N-(2-(4-Cyanothiazolidin-3-yl)-2-oxoethyl)-6-(5-azaspiro[2.3]hexan-5-yl)quinoline-4-carboxamide] the “rHep CLint” value [1] was 8.1 μL/min/1E6, the “hFAP Binding assay k(off)” value [2] was 0.000036 s⁻¹ and the “hFAP Binding assay k(on)” value [2] was 1400000 M⁻¹ s⁻¹. The Kd [2] was 0.027 nM, the IC50 [3] was 240 nM and the microsomal CLint [4] was 22 µL/min/mg. It also gave an IC50 [5] of 0.081 nM and a solubility [6] of 64 µM (≈ 26.1 µg/mL).

In the case of COC[C@H]1[C@H](C)OCCN1c1ccc2nccc(C(=O)NCC(=O)N3CSC[C@H]3C#N)c2c1 [Example 96, N-(2-((R)-4-Cyanothiazolidin-3-yl)-2-oxoethyl)-6-((2S,3S)-3-(methoxymethyl)-2-methylmorpholino)quinoline-4-carboxamide], the “rHep CLint” value [1] is reported as 15 μL/min/1E6, the “hFAP Binding assay k(off)” value [2] is reported as 0.00022 s⁻¹ and the “hFAP Binding assay k(on)” value [2] is reported as 4000000 M⁻¹ s⁻¹. For the same molecule, the Kd [2] was 0.067 nM, the IC50 [3] was 880 nM and the microsomal CLint [4, 7] was 71 µL/min/mg. For the same molecule, the IC50 [5] was 0.17 nM and the solubility [6, 8] was greater than 1000 µM.

Reference: US20230312550A1, “N-(2-(4-CYANOTHIAZOLIDIN-3-YL)-2-OXOETHYL)-QUINOLINE-4-CARBOXAMIDES” (AstraZeneca AB, priority 2020, published 2023)
